No end group written: not given here.

In assay [1] the test system is experimental myocardial ischemia-reperfusion. To be noted: by attenuating neutrophil migration; cited from earlier work.
Assay [2] deals with splanchnic artery occlusion and reperfusion injury. To be noted: by affecting neutrophil migration; cited from earlier work.
Assay [3] relates to Male Sprague-Dawley rats, CPB/DHCA. Kind of assay: Rat CPB/DHCA, ANXA1sp 2 mg/kg i.v. (Example II). The format is in vivo. The procedure:
Male Sprague-Dawley rats were prepared for 60 min of DHCA at 18° C. and received either vehicle or ANXA1 sp (2 mg/kg) i.v. at one hour before CPB and one hour after reperfusion. Renal tissue and serum samples were harvested at 3 (n=5), 6 (n=3), and 24 hours (n=3) i.v. after CPB/DHCA. The time course of renal activity of NF-kappa B was determined by a rat specific ELISA kit. Changes of renal and serum levels of the proinflammatory cytokines tumor necrosis factor-alpha (TNF-α) and interleukin (IL)-6 as well as myeloperoxidase (MPO) were measured by ELISA. Changes of renal levels of activated caspase-3 were determined by Western blot. At 24 hours after DHCA, apoptotic proximal tubular cells was identified by TUNEL and quantified by counting the numbers of apoptotic proximal tubular cells in 5 representative renal areas.

The test system of another assay is rat model of CPB/DHCA. Kind of assay: Preclinical rat model of CPB/DHCA, cardiac-surgery associated AKI (Example I, i.p.). The format is in vivo. Here is the method:
FIGS. 1A-B. ANXA1 short peptide (ANXA1sp) treatment ameliorates proximal tubular apoptosis and inhibits the activity of caspase-3 induced by ischemia-reperfusion injury following deep hypothermia circulatory arrest (DHCA). Quantification of apoptosis was determined by terminal deoxynucleotidyl transferase dUTP nick end labeling (TUNEL) staining (A) and the activity of caspase-3 analyzed by Western blot (B) at 24 h after DHCA in rats either treated with ANXA1sp or 0.1% DMSO (vehicle) i.p. Results are shown as mean±SD of six animals in each group. *p<0.002.
FIGS. 2A-B. Effect of treatment of ANXA1sp after ischemia-reperfusion injury on cell apoptosis and cell proliferation. (A) Treatment with ANXA1sp inhibits apoptosis (TUNEL staining) and enhances proliferation (PCNA staining) induced by ischemia-reperfusion injury following deep hypothermia circulatory arrest (DHCA). Representative sections from 24 hrs after DHCA in rats treated with either ANXA1sp or 0.1% DMSO (vehicle) (original magnification 300×). (B) ANXA1sp tilts the balance of proximal tubular cell fate toward survival after ischemia-reperfusion injury. A ratio of proliferation/apoptosis (TUNEL) was calculated in proximal tubules 24 hrs after DHCA in rats treated with either ANXA1sp or 0.1% DMSO (vehicle). Results were shown as mean±SD of six rats in each group. *p<0.005 versus vehicle.
FIGS. 3A-C. (A) Protein levels of neutrophil gelatinase associated lipocalin (NGAL) analyzed by Western blot in the kidney 24 hrs after reperfusion following cardiopulmonary bypass (CPB) and deep hypothermic circulatory arrest (DHCA) in vehicle treated animals (Vehicle) versus ANXA1sp treated animals (ANXA1sp). Results are shown as mean±SD. (n=6). *p<0.01 vs. Vehicle. (B) Effect of ANXA1sp on renal NGAL protein levels. Results are representative of six independent experiments in each group. (C) The location of NGAL protein detected by immunohistochemistry in the kidney 24 hrs after reperfusion following DHCA in vehicle treated animals (Vehicle) versus ANXA1sp treated animals (ANXA1sp). NGAL protein was visualized with the NGAL antibody. NGAL positive staining was abundant in ANXA1sp treated animals and mainly located in the proximal tubule cells (red color) (original magnification 200×).
FIG. 4. ANXA1sp treatment represses the renal levels of TNF-α induced by ischemia-reperfusion injury following deep hypothermia circulatory arrest (DHCA) analyzed by ELISA in the kidney 24 hrs after reperfusion in rats either treated with ANXA1sp (open bar, n=6) or vehicle (0.1% DMSO) i.p. (filled bar, n=6). Results are expressed as mean value±SD; *p<0.05 vs. Vehicle.
(§1) NGAL positive staining was abundant in ANXA1sp treated animals and mainly located in the proximal tubule cells (FIG. 3C).

The next assay concerns rat model of CPB/CA. Kind of assay: Early renal biomarker GST-μ in rat urine, preclinical model of CPB/CA. The format is in vivo. Conditions: setting of myocardial ischemia/reperfusion, n=3, vs vehicle.
From the text: FIG. 5. […] Values presented are means±SD; n=3; *p<0.05 vs. Vehicle.
as §1

For assay [4], the system named is myocardial ischemia-reperfusion. To be noted: several in vitro and in vivo preclinical models; cited from earlier work.
The test system of the next assay is myocardial I/R injury. Conditions: cited from earlier work.
[5] abbreviates: 6 and 24 h after DHCA, vs vehicle.

Take “Ac-Ala-Met-Val-Ser-Glu-Phe-Leu-Lys-Gln-Ala-Trp Phe-Ile-Glu-Asn-Glu-Glu-Gln-Glu-Tyr-Val-Gln-Thr-Val-Lys (Ac-AMVSEFLKQAWFIENEEQEYVQTVK) [Ac2-26]”: the “protection against experimental myocardial ischemia-reperfusion” value in assay [1] was “protects”. In assay [2], the “protection against splanchnic artery occlusion and reperfusion injury” value was “protects”.

As to Ac-Gln-Ala-Trp [ANXA1sp], the “AKI following CPB/DHCA” value in assay [3] is given as “attenuates”. Further, the “renal activity of NF-kappa B (ELISA)” value in assay [3] (3 and 6 hours after DHCA, vs vehicle) is “significant inhibition”. Moreover, in assay [3] (setting [5]), the “renal levels of IL-6 (ELISA)” value is “significantly suppressed” and the “renal levels of MPO (ELISA)” value was “significantly suppressed”. Further, in assay [3] (24 h after DHCA, vs vehicle), the “numbers of apoptotic proximal tubular cells (TUNEL)” value is given as “reduced numbers”. Further, in assay [3] (24 hours after DHCA, vs vehicle), the “renal levels of TNF-α (ELISA)” value is recorded as “significantly suppressed”. Moreover, the “renal activity of caspase-3 (Western blot)” value in assay [3] (different time points after DHCA, vs vehicle) is on record as “significantly decreased”. In addition, in assay [3] (vs vehicle, data not shown), the “release of IL-6 in the serum” value was “significantly reduced release”, the “release of MPO in the serum” value is listed as “significantly reduced release” and the “release of TNF-α in the serum” value is “significantly reduced release”. Moreover, the “numbers of proximal tubular cells (apoptosis, TUNEL staining)” value in the assay with rat model of CPB/DHCA (24 h after DHCA, i.p., vs vehicle, n=6) is “reduced numbers”. In addition, in the assay with rat model of CPB/DHCA (24 hrs after DHCA, vs vehicle), the “tubule cell proliferation (PCNA staining)” value was “enhanced”. Further, the “expression of NGAL in the kidney (Western blot)” value with rat model of CPB/DHCA (24 hrs after reperfusion following CPB and DHCA, vs vehicle) is given as “significantly higher expression”. Moreover, in the assay on rat model of CPB/DHCA (24 hrs after reperfusion, i.p., vs vehicle), the “levels of TNF-α protein in the kidney (ELISA)” value was “significantly lower levels”. In addition, the “activity of caspase-3 (Western blot)” value in the assay on rat model of CPB/DHCA (kidney, 24 h after DHCA, i.p., vs vehicle) is “lower activity”. In addition, the “NGAL positive staining (immunohistochemistry)” value with rat model of CPB/DHCA (kidney, 24 hrs after reperfusion, mainly located in proximal tubule cells) is given as “abundant”. Besides, the “balance of proximal tubular cell fate (ratio of proliferation/apoptosis)” value with rat model of CPB/DHCA (proximal tubules, 24 hrs after DHCA, vs vehicle) is reported as “tilted the balance of proximal tubular cell fate toward survival”. Besides, in the assay with rat model of CPB/DHCA (rat CPB/DHCA, vs vehicle (0.1% DMSO)), the “cardiac-surgery associated acute kidney injury (AKI)” value is “significantly attenuates”. Further, in the assay with rat model of CPB/CA, the “expression of GST-μ in rat urine” value was “significantly reduced expression”. The cardioprotective efficacy entry in assay [4] is on record as “robust cardioprotective efficacy”.

B1: ANXA1: 37 kDa protein, member of the annexin superfamily; about 346 amino acids (SEQ ID NO:2) (protein, listed as Homo sapiens)
chain: MAMVSEFLKQAWFIENEEQEYVQTVKSSKGGPGSAVSPYPTFNPSSDVAALHKAIMVKGVDEATIIDILTKRNNAQRQQIKAAYLQETGKPLDETLKKALTGHLEEVVLALLKTPAQFDADELRAAMKGLGTDEDTLIEILASRTNKEIRDINRVYREELKRDLAKDITSDTSGDFRNALLSLAKGDRSEDFGVNEDLADSDARALYEAGERRKGTDVNVFNTILTTRSYPQLRRVFQKYTKYSKHDMNKVLDLELKGDIEKCLTAIVKCATSKPAFFAEKLHQAMKGVGTRHKALIRIMVSRSEIDMNDIKAFYQKMYGISLCQAILDETKGDYEKILVALCGGN
As for B1, in the assay with myocardial I/R injury (myocardial I/R injury), the leukocyte-dependent myocardial damage entry is on record as “reduces”. In addition, the “numbers of extravasated leukocytes” value in the assay on myocardial I/R injury (rats treated with ANXA1) is given as “significantly lower numbers”.

The record behind these values is patent US20140296149A1, “Compositions and Methods for the Treatment of Cardiac Surgery-Associated Acute Kidney Injury with Annexin A1 Peptide” (priority 2010, published 2014).
